The values that follow come from publication PMC6328587 (Nature Communications, 2019).

The structures appear in SMILES notation. Entries after “also recorded” stand apart in the source; their conditions may differ. Read-outs that look alike come from different tables or passages of the source.

In assay [1] the target is T1, mutant (K220E/T221E) p38δ (Homo sapiens, UniProt O15264, K220E/T221E).
T1 construct: expressed in transfected cells; host or cells: HeLa cells, Lipofectamine 2000, pcDNA5-p38delta-K220ET221E
T1 sequence (O15264 1-365 K220E/T221E): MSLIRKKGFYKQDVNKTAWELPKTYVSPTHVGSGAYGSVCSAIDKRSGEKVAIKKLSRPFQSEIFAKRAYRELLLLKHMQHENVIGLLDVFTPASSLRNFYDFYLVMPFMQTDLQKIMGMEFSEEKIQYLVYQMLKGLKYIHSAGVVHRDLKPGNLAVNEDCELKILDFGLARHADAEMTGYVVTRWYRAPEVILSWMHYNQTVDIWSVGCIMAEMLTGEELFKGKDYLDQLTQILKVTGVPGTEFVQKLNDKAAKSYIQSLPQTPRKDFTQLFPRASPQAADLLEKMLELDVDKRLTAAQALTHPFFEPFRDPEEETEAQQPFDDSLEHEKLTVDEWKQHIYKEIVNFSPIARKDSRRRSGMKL
The assay is described as follows: Degradation of transfected mutant p38δ in HeLa cells. It is filed as cell-based. The conditions noted are these: 24 h. As to the method: Mutant p38δ was generated by QuikChange Lightning site-directed mutagenesis kit (Agilent). Transfections were carried out using Lipofectamine 2000 reagent (Invitrogen) in HeLa cells seeded at 3 × 10^5 cells per six well. One microgram of FLAG-containing pcDNA5-p38delta-WT or pcDNA5-p38delta-K220ET221E was used per transfection. Opti-MEM media were changed after 6 h to DMEM (1 × ), at which point the indicated compounds were added for 24 h before harvesting.

Assay [2] has as its system JNK2. The assay is described as follows: JNK2 degradation, western blot in MDA-MB-231 cells. The assay is classed as cell-based, human. The conditions noted are these: 0.025-2.5 µM. As to the method:
(§1) […] once with ice-cold PBS (1 × ), followed by lysis in buffer containing 25 mM Tris [pH 7.5], 0.25% sodium deoxycholate, 1% Triton X-100, supplemented with 1X protease inhibitor cocktail (Roche), and phosphatase inhibitors (10 mM NaF, 1 mM Na3VO4, and 20 mM β-glycerophosphate), unless otherwise noted. Lysates were spun at 14,000 × g for 10 min at 4 °C and supernatant was evaluated for protein content using a Pierce BCA Protein Assay (ThermoFisher Scientific). In all experiments, 25–50 μg of protein was loaded onto 10% SDS-PAGE gels or 4–20% Criterion TGX precast gradient gels (Bio-Rad), transferred to nitrocellulose membranes, and probed with the specified antibodies overnight at 4 °C in 1X TBS-Tween (Tris-buffered saline plus 0.02% Tween 20) containing 5% non-fat milk. Immunoblots were visualized using a Bio-Rad ChemiDoc imaging instrument and subsequently processed and quantified using the accompanying Bio-Rad ImageLab software. See Supplementary Figure 8 for uncropped scans of western blots shown in the main text figures.
(§2) Supplementary Figure 4 cont.
(§3) Supplementary Figure 4. Characterization of M APK fam ily degradation selectivity (related to Figures 1-2). (a) p38 M APK fam ily m em bers (α, β, δ, γ) were aligned using the T-Coffee multiple sequence alignm ent server. […] Note: JNK1 and JNK2 are expressed as two alternatively-spliced form s. […]
For orientation: In western blotting, separated proteins are transferred to a membrane and probed.

Assay [3] has as its system JNK1. The assay is described as follows: JNK1 degradation, western blot in MDA-MB-231 cells. It is filed as cell-based, human. As to conditions: 0.025-2.5 µM. The procedure: as §1, §2, §3
The target in assay [4] is T2, p38α (Homo sapiens, UniProt Q16539).
T2 construct: SJFα PROTAC (13-atom linker, amide attachment) selectively degrades p38α; endogenous in cells; host or cells: MDA-MB-231
T2 sequence (Q16539 whole entry): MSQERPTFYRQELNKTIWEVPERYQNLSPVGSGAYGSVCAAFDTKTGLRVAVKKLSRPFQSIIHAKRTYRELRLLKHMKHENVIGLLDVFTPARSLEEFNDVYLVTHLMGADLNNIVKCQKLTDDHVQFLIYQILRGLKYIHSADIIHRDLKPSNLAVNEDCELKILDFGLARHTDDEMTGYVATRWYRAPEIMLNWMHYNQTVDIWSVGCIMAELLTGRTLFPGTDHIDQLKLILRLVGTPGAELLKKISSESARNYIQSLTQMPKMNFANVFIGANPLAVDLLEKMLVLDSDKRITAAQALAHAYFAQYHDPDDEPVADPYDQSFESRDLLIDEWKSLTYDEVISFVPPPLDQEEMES
The assay is described as follows: PROTAC-induced p38α degradation, western blot in MDA-MB-231 cells. It is filed as cell-based. As to the method: MDA-MB-231 and HeLa cells were obtained from the American Type Culture Collection (ATCC), cultured in RPMI-1640 medium (1 × ) and Dulbecco’s modified Eagle’s medium (DMEM; 1 × ), respectively, containing 10% fetal bovine serum and 1% penicillin–streptomycin and grown in a humidified incubator at 37 °C and 5% CO2.
as §1
Western blot data in Figs. 2, 6, and Supplementary Figures 2, 3 were quantified by using the band feature in Image Lab (Bio-Rad). The p38 values were normalized to the α-tubulin signal to account for differences in protein load, and PROTAC-treated normalized values were expressed as a % of the vehicle-treated (no PROTAC) value, which itself was defined as 100% p38 protein level. […] The sigmoidal fit established both the full extent of degradation, or Dmax at the bottom asymptote of the curve, as well as the DC50, which is the inflection point at which 50% of the total degradation observed was reached.

Assay [5] deals with T3, p38δ:PROTAC:VHL ternary complex (Homo sapiens, UniProt O15264+P40337).
T3 construct: encoding a region spanning amino acids 1–365; His6 (N); made in house; host or cells: E. coli BL21-CodonPlus(DE3)-RIPL (p38δ); E. coli BL21(DE3) (GST-VBC)
T3 sequence (O15264 whole entry, the tested form may be a part): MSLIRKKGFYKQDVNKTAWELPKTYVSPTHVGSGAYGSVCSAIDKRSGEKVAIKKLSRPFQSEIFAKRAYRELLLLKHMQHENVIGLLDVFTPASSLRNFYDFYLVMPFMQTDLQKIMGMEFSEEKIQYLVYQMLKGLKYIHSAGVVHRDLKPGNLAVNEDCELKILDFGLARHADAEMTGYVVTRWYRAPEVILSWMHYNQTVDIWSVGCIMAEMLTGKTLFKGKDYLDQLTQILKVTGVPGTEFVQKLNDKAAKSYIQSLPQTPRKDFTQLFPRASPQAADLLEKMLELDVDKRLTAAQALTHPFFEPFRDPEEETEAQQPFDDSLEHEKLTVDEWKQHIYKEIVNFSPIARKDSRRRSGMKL
T3 sequence (P40337 whole entry, the tested form may be a part): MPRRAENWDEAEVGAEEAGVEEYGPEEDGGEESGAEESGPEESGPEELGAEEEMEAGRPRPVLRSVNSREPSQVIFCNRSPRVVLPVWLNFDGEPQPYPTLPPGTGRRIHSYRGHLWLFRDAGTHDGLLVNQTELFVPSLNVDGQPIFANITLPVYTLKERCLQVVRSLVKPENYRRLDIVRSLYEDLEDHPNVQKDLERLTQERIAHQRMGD
T3 sequence (Q15370 whole entry partner, the tested form may be a part): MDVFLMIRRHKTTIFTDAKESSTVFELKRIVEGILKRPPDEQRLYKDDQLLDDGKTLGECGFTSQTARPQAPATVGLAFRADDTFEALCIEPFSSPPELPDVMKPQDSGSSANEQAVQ
T3 sequence (Q15369 whole entry partner, the tested form may be a part): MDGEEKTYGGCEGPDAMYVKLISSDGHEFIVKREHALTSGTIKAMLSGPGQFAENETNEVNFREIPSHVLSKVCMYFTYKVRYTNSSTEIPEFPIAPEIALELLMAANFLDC
The assay is described as follows: In vitro ternary complex pull-down, GST-VBC bait, purified p38δ. As to conditions: dose-dependent. It is filed as binding. As to the method:
Glutathione Sepharose 4B (Glutathione-conjugated beads in a slurry containing 20% ethanol) were washed twice with 1X wash buffer (50 mM HEPES pH 7.5, 150 mM NaCl, 1 mM DTT, 0.01% NP40, 5 mM MgCl2, 10% Glycerol) and then blocked for 1 h at room temperature with 10% bovine serum albumin (BSA) in wash buffer. The beads were then washed again three times with wash buffer and then purified GST-VBC (stable form of VHL complexed with EloB/EloC, described above) was immobilized for 1 h at 4 °C at 3.6 pmole µL^–1 of beads. The beads were then washed three times with wash buffer, resuspended, divided into two equal volumes, and p38α or p38δ protein was added. The bead:p38 mixture was then aliquoted to separate tubes and PROTAC was added at the indicated concentration (PROTACs were intermediately diluted in 10% DMSO and 0.25% CHAPS). This mixture was incubated at 4 °C for 2 h. The beads were washed three times with 10 column volumes of wash buffer and then eluted with SDS loading buffer at 75 °C for 10 min.

For assay [6], the target named is T4, ERK2 (Homo sapiens, UniProt P28482).
T4 construct: endogenous in cells; host or cells: MDA-MB-231
T4 sequence (P28482 whole entry): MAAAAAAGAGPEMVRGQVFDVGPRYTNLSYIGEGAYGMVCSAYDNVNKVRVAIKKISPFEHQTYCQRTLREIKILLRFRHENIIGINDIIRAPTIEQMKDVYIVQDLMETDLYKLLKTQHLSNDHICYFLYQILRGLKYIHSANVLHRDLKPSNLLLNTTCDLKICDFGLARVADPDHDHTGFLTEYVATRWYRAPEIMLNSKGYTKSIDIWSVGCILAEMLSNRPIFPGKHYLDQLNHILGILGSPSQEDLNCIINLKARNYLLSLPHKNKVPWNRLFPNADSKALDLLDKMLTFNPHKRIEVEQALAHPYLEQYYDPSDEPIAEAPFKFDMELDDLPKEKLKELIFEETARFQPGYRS
In words: ERK2 degradation, western blot in MDA-MB-231 cells. It is filed as cell-based. As to conditions: 0.025-2.5 µM. The procedure:
as §1, §2, §3

Where [7] appears, read: 0.025-5.0 µM survey, biological duplicates, ± one s.d., Supplementary Table 1.
[8] abbreviates: 0.025-5.0 µM survey, ± one s.d., Supplementary Table 1, read-out: Dmax p38α (maximum percentage of degradation).

In general, DC50 refers to the concentration at which degradation of the target reaches its halfway point. The low end stands for degradation at low concentration, the high end for degradation only at high concentration. One may read the Dmax as the greatest extent of degradation seen.

As for `COc1cc2c(Oc3ccc(NC(=O)C4(C(=O)Nc5ccc(F)cc5)CC4)cc3F)ccnc2cc1OCCOCCOCCOc1cc(-c2scnc2C)ccc1CNC(=O)[C@@H]1C[C@@H](O)CN1C(=O)[C@H](C(C)C)N1Cc2ccccc2C1=O` [SJFδ], the “degradation of double-mutant (K220E/T221E) p38δ” value in assay [1] is on record as “able to degrade”. Moreover, the JNK2 degradation result in assay [2] is “neither PROTAC degrades”. Moreover, the JNK1 degradation result in assay [3] is reported as “neither PROTAC degrades”. In addition, the “p38α degradation (in words)” value in assay [4] is listed as “does not degrade”. The compound further displayed a half-maximal degradation concentration (DC50) in assay [4] (setting [7]) of 45.9 ± 81.3 nM. In addition, the greatest degradation seen (Dmax) in assay [4] (setting [8]) stood at 34.5 ± 10.1%. The “pull-down of purified p38δ on GST-VBC-coated beads” value in assay [5] is reported as “can pull-down purified p38δ”. The ERK2 degradation result in assay [6] is listed as “neither PROTAC degrades”.

As for `COc1cc2c(Oc3ccc(NC(=O)C4(C(=O)Nc5ccc(F)cc5)CC4)cc3F)ccnc2cc1OCCCCOCCCCOCC(=O)N[C@H](C(=O)N1C[C@H](O)C[C@H]1C(=O)NCc1ccc(-c2scnc2C)cc1)C(C)(C)C` [SJFα], the “degradation of double-mutant (K220E/T221E) p38δ” value in assay [1] is “able to degrade; also recorded: potently degrades”. In addition, the JNK2 degradation result in assay [2] was “neither PROTAC degrades”. For the same compound, the JNK1 degradation entry in assay [3] is on record as “neither PROTAC degrades”. Further, the “p38α downregulation after pre-treatment with 1 µM epoxomicin or 1 µM MLN4924” value in assay [4] (250 nM PROTAC, 6 h) was “completely rescued”. The half-maximal degradation concentration (DC50) in assay [4] (setting [7]) was determined as 9.5 ± 1 nM; in assay [4] (wider dose response 1 nM-100 µM, Supplementary Figure 3), 7.16 ± 1.03 nM. In addition, the maximal degradation (Dmax) was found to be 99.6 ± 1.1% in assay [4] (setting [8]) and 97.4% in assay [4] (wider dose response 1 nM-100 µM, Supplementary Figure 3, read-out: Dmax p38α). Further, the “hook effect in p38α degradation” value in assay [4] (up to 100 µM) is recorded as “no hook effect”. For the same compound, in assay [5], the “pull-down of purified p38δ on GST-VBC-coated beads” value is “can pull-down purified p38δ”. Besides, in assay [6], the ERK2 degradation entry is on record as “neither PROTAC degrades”.
